# Laboratory results from US20240174690A1, “ANNULATED 2-AMINO-3-CYANO THIOPHENES AND DERIVATIVES FOR THE TREATMENT OF CANCER” (BOEHRINGER INGELHEIM INTERNATIONAL GMBH, priority 2021, published 2024).
# pIC50: −log10 of the molar value.
# How the values were obtained:
# NCI-H2122 cells = assay: NCI-H2122 CTG proliferation assay (120 h) (NSCLC, G12C); assay type: cell-based; settings: Homo sapiens
# How it was run: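 Proliferation was read by CellTiter-Glo luminescence after 120 h of compound exposure, starting one day after seeding 200 NCI-H2122 (G12C) cells per well in RPMI/10% FCS. RLU relative to DMSO wells gave percent viability, and four-parameter nonlinear regression gave IC50.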
# [1] = test system: KRAS G12V-dependent Ba/F3 cells; assay: Ba/F3 proliferation assay, KRAS G12V; assay type: cell-based; settings: Mus musculus, BaF3, 72 h, AlamarBlue;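 also: proliferation IC50 in KRAS G12V-dependent Ba/F3 cells read by AlamarBlue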
# How it was run: (§1)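 Proliferation of mutant-KRAS-driven Ba/F3 cells cultured without IL-3 is followed with AlamarBlue after compound addition. Curves are fitted from duplicate wells.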
# [2] = test system: KRAS G12D-dependent Ba/F3 cells; assay: Ba/F3 proliferation assay, KRAS G12D; assay type: cell-based; settings: Mus musculus, BaF3, 72 h, AlamarBlue
# How it was run: as §1
# KRAS (G12D)::SOS1 = KRAS (G12D)::SOS1 (Homo sapiens (Human), UniProt P01116, G12D); assay: KRAS::SOS1 AlphaScreen binding assay, KRAS G12D
# How it was run: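 Compounds (up to 100 μM, eleven fivefold dilutions in duplicate) were incubated 30 min with KRAS 1-169 (10 nM, or 7.5 nM for G12C), GST-SOS1 564-1049 (5 nM for G12D/G12C, 10 nM for others) and 10 μM GDP in PBS buffer with BSA and Tween. Donor/acceptor beads were then added for 60 min at room temperature, and IC50 came from a 4-parameter fit of the AlphaScreen signal.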
# KRAS (G12D)::SOS1, sequence (P01116 other isoform, or with tags, fused parts or gaps G12D): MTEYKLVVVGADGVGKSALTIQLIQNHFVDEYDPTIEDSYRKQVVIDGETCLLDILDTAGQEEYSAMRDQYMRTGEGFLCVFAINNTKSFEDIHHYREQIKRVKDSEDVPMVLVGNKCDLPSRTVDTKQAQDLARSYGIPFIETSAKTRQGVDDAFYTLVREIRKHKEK
pIC50 (NCI-H2122 cells),pIC50 [1],pIC50 [2],pIC50 (KRAS (G12D)::SOS1),Structure (SMILES)
5.82,8.52,7.85,8.70,C[C@H](Oc1cc(-n2ccnn2)nc(-c2onc3c2CCC[C@@]32CCCc3sc(N)c(C#N)c32)n1)[C@@H]1CCCN1C [I-32]
5.85,7.85,7.09,8.22,C[C@H](Oc1cc(-c2ccn3ncnc3c2)nc(-c2onc3c2CCC[C@@]32CCCc3sc(N)c(C#N)c32)n1)[C@@H]1CCCN1C [I-33]
5.97,7.85,7.42,8.40,C[C@H](Oc1cc(-c2ccn(C3COC3)n2)nc(-c2onc3c2CCC[C@@]32CCCc3sc(N)c(C#N)c32)n1)[C@@H]1CCCN1C [I-34]
5.45,6.35,7.96,9.00,C[C@H](Oc1cc(N2CCN(C)C3(CC3)C2)nc(-c2onc3c2CCC[C@@]32CCCc3sc(N)c(C#N)c32)n1)[C@@H]1CCCN1C [I-41]
5.85,6.52,7.20,9.00,C[C@H](Oc1cc(N2C[C@H](C)N(C)[C@@H](C)C2)nc(-c2onc3c2CCC[C@@]32CCCc3sc(N)c(C#N)c32)n1)[C@@H]1CCCN1C [I-43]
5.89,5.98,7.04,8.70,C[C@H](Oc1cc(N2CCN(C)C3(CCC3)C2)nc(-c2onc3c2CCC[C@@]32CCCc3sc(N)c(C#N)c32)n1)[C@@H]1CCCN1C [I-44]
5.46,6.71,7.03,9.00,C[C@H](Oc1cc(N2CC(N(C)C)C2)nc(-c2noc3c2CCC[C@@]32CCCc3sc(N)c(C#N)c32)n1)[C@@H]1CCCN1C [II-7]
6.03,6.50,6.84,9.00,C[C@H](Oc1cc(N2CCN(CCO)CC2)nc(-c2noc3c2CCC[C@@]32CCCc3sc(N)c(C#N)c32)n1)[C@@H]1CCCN1C [II-8]
5.07,6.02,6.94,8.70,C[C@H](Oc1cc(N2C[C@@H](N(C)C)[C@@H](O)C2)nc(-c2noc3c2CCC[C@@]32CCCc3sc(N)c(C#N)c32)n1)[C@@H]1CCCN1C [II-10]
5.45,6.49,7.07,9.00,C[C@H](Oc1cc(N2C[C@@H](N(C)C)[C@@H](F)C2)nc(-c2noc3c2CCC[C@@]32CCCc3sc(N)c(C#N)c32)n1)[C@@H]1CCCN1C [II-11]
5.86,6.26,7.70,9.00,C[C@H](Oc1cc(N2CC[C@H](N3CCCCC3)C2)nc(-c2noc3c2CCC[C@@]32CCCc3sc(N)c(C#N)c32)n1)[C@@H]1CCCN1C [II-12]
5.30,6.61,7.62,9.00,C[C@H](Oc1cc(N2CCN(C)C3(COC3)C2)nc(-c2noc3c2CCC[C@@]32CCCc3sc(N)c(C#N)c32)n1)[C@@H]1CCCN1C [II-13]
5.86,6.11,8.00,9.00,C[C@H](Oc1cc(N2CC[C@H](N3CCCC3)C2)nc(-c2noc3c2CCC[C@@]32CCCc3sc(N)c(C#N)c32)n1)[C@@H]1CCCN1C [II-14]
5.62,6.47,7.85,9.00,C[C@H](Oc1cc(N2CC[C@H](N(C)C)C2)nc(-c2noc3c2CCC[C@@]32CCCc3sc(N)c(C#N)c32)n1)[C@@H]1C[C@@H](F)CN1C [II-15]
5.45,5.78,6.74,9.00,C[C@H]1CN(C)CCCN1c1cc(N2CC[C@H](N(C)C)C2)nc(-c2noc3c2CCC[C@@]32CCCc3sc(N)c(C#N)c32)n1 [II-16]
7.72,8.52,8.00,9.00,C[C@H](Oc1cc(-n2ccc(C(=O)N3CCCC3)n2)nc(-c2noc3c2CCC[C@@]32CCCc3sc(N)c(C#N)c32)n1)[C@@H]1CCCN1C [II-19]
5.69,8.70,7.80,8.70,CNC(=O)c1ccn(-c2cc(O[C@@H](C)[C@@H]3CCCN3C)nc(-c3noc4c3CCC[C@@]43CCCc4sc(N)c(C#N)c43)n2)n1 [II-20]
6.89,8.52,7.64,8.70,C[C@H](Oc1cc(-n2ccc(C(N)=O)n2)nc(-c2noc3c2CCC[C@@]32CCCc3sc(N)c(C#N)c32)n1)[C@@H]1CCCN1C [II-21]

pIC50 (NCI-H2122 cells),pIC50 [1],pIC50 [2],pIC50 (KRAS (G12D)::SOS1),Structure (SMILES)
5.53,8.40,7.28,8.70,CCOC(=O)c1ccn(-c2cc(O[C@@H](C)[C@@H]3CCCN3C)nc(-c3noc4c3CCC[C@@]43CCCc4sc(N)c(C#N)c43)n2)n1 [II-23]
5.27,5.09,< 4.60,8.52,C[C@H](Oc1cc(-n2ccc(C(=O)O)n2)nc(-c2noc3c2CCC[C@@]32CCCc3sc(N)c(C#N)c32)n1)[C@@H]1CCCN1C [II-24]
7.48,8.40,7.60,8.70,C[C@H](Oc1cc(-n2ccc(C(=O)NC3COC3)n2)nc(-c2noc3c2CCC[C@@]32CCCc3sc(N)c(C#N)c32)n1)[C@@H]1CCCN1C [II-25]
6.84,8.52,7.43,8.70,C[C@H](Oc1cc(-n2ccc(C(=O)NC3(C)COC3)n2)nc(-c2noc3c2CCC[C@@]32CCCc3sc(N)c(C#N)c32)n1)[C@@H]1CCCN1C [II-26]
6.05,7.80,7.31,8.10,C[C@H](Oc1cc(-c2ccn(C)n2)nc(-c2noc3c2CCC[C@@]32CCCc3sc(N)c(C#N)c32)n1)[C@@H]1C[C@@H](F)CN1C [II-27]
5.02,7.57,7.05,7.66,C[C@H](Oc1cc(-c2cnn(C)n2)nc(-c2noc3c2CCC[C@@]32CCCc3sc(N)c(C#N)c32)n1)[C@@H]1C[C@@H](F)CN1C [II-28]
5.59,7.19,8.40,9.00,C[C@H](Oc1cc(N2CCNC3(COC3)C2)nc(-c2noc3c2CCC[C@@]32CCCc3sc(N)c(C#N)c32)n1)[C@@H]1CCCN1C [II-31]
5.48,5.91,8.52,9.00,C[C@H](Oc1cc(N2CCNC(C)(C)C2)nc(-c2noc3c2CCC[C@@]32CCCc3sc(N)c(C#N)c32)n1)[C@@H]1CCCN1C [II-32]
5.38,6.18,7.09,8.70,C[C@H](Oc1cc(N2C[C@H]3CN(C)C[C@H]3C2)nc(-c2noc3c2CCC[C@@]32CCCc3sc(N)c(C#N)c32)n1)[C@@H]1CCCN1C [II-33]
5.32,5.77,7.09,8.70,CN[C@H]1CCN(c2cc(O[C@@H](C)[C@@H]3CCCN3C)nc(-c3noc4c3CCC[C@@]43CCCc4sc(N)c(C#N)c43)n2)C1 [II-35]
5.46,6.41,7.19,9.00,C[C@@H]1CN(c2cc(O[C@@H](C)[C@@H]3CCCN3C)nc(-c3noc4c3CCC[C@@]43CCCc4sc(N)c(C#N)c43)n2)C[C@H](C)N1 [II-36]
5.26,6.75,7.59,9.00,C[C@H](Oc1cc([C@@H]2CCN(C)C2)nc(-c2noc3c2CCC[C@@]32CCCc3sc(N)c(C#N)c32)n1)[C@@H]1CCCN1C [II-37]
5.59,7.25,7.96,9.00,C[C@H](Oc1cc([C@H]2CCN(C)C2)nc(-c2noc3c2CCC[C@@]32CCCc3sc(N)c(C#N)c32)n1)[C@@H]1CCCN1C [II-38]
5.85,6.34,8.15,9.00,C[C@H](Oc1cc(N2CCNC3(CCC3)C2)nc(-c2noc3c2CCC[C@@]32CCCc3sc(N)c(C#N)c32)n1)[C@@H]1CCCN1C [II-40]
5.78,6.01,7.59,9.00,C[C@H](Oc1cc(N2CCNC3(CCCC3)C2)nc(-c2noc3c2CCC[C@@]32CCCc3sc(N)c(C#N)c32)n1)[C@@H]1CCCN1C [II-41]
6.45,8.30,7.59,8.70,C[C@H](Oc1cc(-c2ccn([C@H]3CCCOC3)n2)nc(-c2noc3c2CCC[C@@]32CCCc3sc(N)c(C#N)c32)n1)[C@@H]1CCCN1C [II-42]
6.99,8.10,7.47,8.70,C[C@H](Oc1cc(-c2ccn(C[C@@H]3CCCO3)n2)nc(-c2noc3c2CCC[C@@]32CCCc3sc(N)c(C#N)c32)n1)[C@@H]1CCCN1C [II-43]
5.80,7.85,7.49,8.70,C[C@H](Oc1cc(C2CCCO2)nc(-c2noc3c2CCC[C@@]32CCCc3sc(N)c(C#N)c32)n1)[C@@H]1CCCN1C (stereo partly shown) [II-44]

Structure (SMILES),pIC50 (NCI-H2122 cells),pIC50 [1],pIC50 [2],pIC50 (KRAS (G12D)::SOS1)
C[C@H](Oc1cc(N2CC3CCC(C2)N3)nc(-c2noc3c2CCC[C@@]32CCCc3sc(N)c(C#N)c32)n1)[C@@H]1CCCN1C [II-34],5.05,6.17,7.29,9.00
